# Where a name gives a salt, the structure may show the parent alone.
# Columns and labels:
# [1] = molecular target: T1, human neutrophil elastase (Homo sapiens, UniProt P08246); assay: Neutrophil Elastase activity assay (fluorogenic MEOSUC-Ala-Ala-Pro-Val-AMC substrate); format: biochemical; set-up: key to Neutrophil Elastase IC50 / Neutrophil Elastase IC90: - = inactive
# T1 construct: purchased Merck Millipore 324681
# T1 sequence (P08246 30-247 limits assumed): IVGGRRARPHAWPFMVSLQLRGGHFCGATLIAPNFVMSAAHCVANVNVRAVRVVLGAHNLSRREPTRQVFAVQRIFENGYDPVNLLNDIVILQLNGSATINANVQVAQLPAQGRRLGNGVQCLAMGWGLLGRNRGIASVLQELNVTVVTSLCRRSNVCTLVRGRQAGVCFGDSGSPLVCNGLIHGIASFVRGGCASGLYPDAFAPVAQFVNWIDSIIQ
# [2] = molecular target: recombinant human TMPRSS2 enzyme (CusaBio #YP023924HU) (human) (UniProt O15393); assay: cell-based or functional assay
# Chain of recombinant human TMPRSS2 enzyme (CusaBio #YP023924HU) (human) (O15393 106-492 limits assumed): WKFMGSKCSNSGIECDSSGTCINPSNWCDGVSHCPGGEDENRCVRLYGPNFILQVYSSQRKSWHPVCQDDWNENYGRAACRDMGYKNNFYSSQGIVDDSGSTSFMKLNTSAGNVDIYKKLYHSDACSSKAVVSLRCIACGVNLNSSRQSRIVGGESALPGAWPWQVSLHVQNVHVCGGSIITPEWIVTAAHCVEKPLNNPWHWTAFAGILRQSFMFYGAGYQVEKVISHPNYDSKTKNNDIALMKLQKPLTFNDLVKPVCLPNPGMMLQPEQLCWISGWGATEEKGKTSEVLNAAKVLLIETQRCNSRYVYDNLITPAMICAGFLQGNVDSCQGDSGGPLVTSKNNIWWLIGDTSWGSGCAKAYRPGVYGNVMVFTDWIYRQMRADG
# [3] = 15 min preincubation at 37 °C, read after 5 minutes
Compound,"Neutrophil Elastase IC50 [1, 3]","Neutrophil Elastase IC90 [1, 3]",inhibition of neutrophil elastase activity ([1]; result in words),TMPRSS2 IC50 (fluorogenic substrate enzyme activity assay) [2]
CN(C)C(=O)COC(=O)Cc1ccc(OC(=O)c2ccc(NC(=N)N)cc2)cc1 [Camostat mesylate],-,-,did not inhibit,
"NIBSC Standard Alpha-1-Antitrypsin, plasma derived (1st International standard) (#05/162 NIBSC) (from UniProt P01009 25-418)",,,,51.8 nM
"Prolastin (Grifols), human plasma-derived A1AT formulation (from UniProt P01009 25-418)",,,,79 nM

# From patent EP4480960A1, “A R[…] ALPHA-1 ANTITRYPSIN GLYCOPROTEIN” (AATEC Medical GmbH, priority 2023, dated 2024)
